Experimental data as given in patent publication US20210330611A1, “THERAPY FOR NEUROLOGICAL DISEASES/DISORDERS” (priority 2020, published 2021).
Structures can show the parent of a compound that is named as a salt. Where two headings read alike, the source gives them in different places.

Assays:
[1] = tested on: fibrin-induced microglia activation; test: Image-based assay of fibrin-induced microglia activation (HTS and dose response); type: cell-based, rat; details: for inhibition at 10 µM: Rattus norvegicus, Microglia, read-out: Fibrin % inhibition
primary rat microglia [2] = tested on: primary rat microglia;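 as to Fibrin % cell toxicity: share of dead cells sized under 150 µm2 at 10 µM in fibrin-stimulated microglia HTS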
[3] = tested on: LPS-induced microglia activation; test: Image-based assay of LPS-induced microglia activation (HTS and dose response); type: cell-based, rat; details: for inhibition at 10 µM: Rattus norvegicus, Microglia, read-out: LPS % inhibition
primary rat microglia [4] = tested on: primary rat microglia; remark: listed apart in the source;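 as to Fibrin % cell toxicity: share of dead cells sized under 150 µm2 at 10 µM in fibrin-stimulated microglia HTS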
[5] = tested on: fibrin- and LPS-induced microglia activation; test: cells; type: cell-based, rat
[6] = primary microglia HTS, fibrin stimulation, compounds at 10 μM
[7] = primary microglia HTS, LPS stimulation, compounds at 10 μM
[8] = classification by fibrin and LPS inhibition, HTS at 10 μM
[9] = primary microglia HTS, fibrin stimulation, compounds at 10 μM, 10 µM
[10] = primary microglia HTS, fibrin stimulation, increased cell size (>800 μm^2) as marker of activation
[11] = quadrant by fibrin and LPS inhibition in HTS of 1907 compounds
[12] = primary microglia HTS, fibrin stimulation, activation = cell size >800 μm2
[13] = 48 h, primary microglia HTS, LPS stimulation, activation = cell size >800 μm2

Compound | inhibition at 10 µM [1] | LPS % cell toxicity (primary rat microglia [2]; rat) | inhibition at 10 µM [3] | Fibrin % cell toxicity (primary rat microglia [4]; rat) | Quadrant (FIG. 5b) [5] | inhibition at 10 µM [1, 6] | inhibition at 10 µM [3, 7] | Quadrant (FIG. 5b) [5, 8] | also measured
CC(=O)Nc1c(I)c(NC(C)=O)c(I)c(C(=O)O)c1I [Diatrizoate] | 4% | 0% | 5% | 0% | Q4 |  |  |  | 
COc1ccc(Cc2cnc(N)nc2N)cc1OC [Diaveridine] |  | 1% |  | 1% |  | -8% | 13% | Q4 | 
NC[C@@H]1CC[C@@H](N)[C@@H](O[C@H]2[C@H](O)[C@@H](O[C@H]3O[C@H](CO)[C@@H](O)[C@H](N)[C@H]3O)[C@H](N)C[C@@H]2N)O1 [Dibekacin] | 10% | 1% | 20% | 1% | Q4 |  |  |  | 
COP(=O)(OC)OC=C(Cl)Cl [Dichlorvos] |  | 1% |  | 1% |  | -1% | 19% | Q4 | 
O=c1oc2ccccc2c(O)c1Cc1c(O)c2ccccc2oc1=O [Dicoumarol] |  | 0% |  | 1% |  | -24% | 18% | Q4 | 
O=c1[nH]cnc2c1ncn2[C@H]1CC[C@@H](CO)O1 [Didanosine] |  | 0% |  | 1% |  | -8% | -2% | Q4 | 
CC/C(=C(/CC)c1ccc(O)cc1)c1ccc(O)cc1 [Diethylstilbestrol] | -26% | 0% | 16% | 1% | Q4 |  |  |  | 
O=C(O)c1cc(-c2ccc(F)cc2F)ccc1O [Diflunisal] |  | 0% |  | 0% |  | -62% | 15% | Q4 | 
COc1ccc([C@@H]2Sc3ccccc3N(CCN(C)C)C(=O)[C@@H]2OC(C)=O)cc1 [Diltiazem Hydrochloride] |  | 0% |  | 0% |  |  |  | Q4 | Fibrin % inhibition [1, 9]: −5%; LPS % inhibition ([3]; primary microglia HTS, LPS stimulation, compounds at 10 μM, 10 µM): 15%
COc1ccc([C@@H]2Sc3ccccc3N(CCN(C)C)C(=O)[C@@H]2OC(C)=O)cc1 [Diltiazem] |  | 0% |  | 1% |  |  | 9% | Q4 | Fibrin % inhibition [1, 9]: 21%
OCC(S)CS (stereo not shown) [Dimercaptopropanol, Dimercaprol] |  |  |  |  |  |  |  | Q4 | Fibrin % inhibition [1, 6]: 49%; LPS % cell toxicity (primary rat microglia [2]): 0%; LPS % inhibition [3, 7]: 16%; Fibrin % cell toxicity (primary rat microglia [4]): 1%
Cc1ncc([N+](=O)[O-])n1C [Dimetridazole] |  | 1% |  | 1% |  | -16% | 15% | Q4 | 
CCN(CC)C(=S)SSC(=S)N(CC)CC [Disulfiram] |  | 75% |  | 90% |  |  |  |  | inhibition at 10 µM [1, 10]: 114%; inhibition at 10 µM ([3]; 48 h, primary microglia HTS, LPS stimulation, increased cell size (>800 μm^2) as marker of activation): 131%; Quadrant (FIG. 5b) [5, 11]: Q2
O=c1[nH]c2ccccc2n1CCCN1CCC(n2c(=O)[nH]c3cc(Cl)ccc32)CC1 [Domperidone] | 20% | 0% | 15% | 1% | Q4 |  |  |  | 
NCCc1ccc(O)c(O)c1 [Dopamine] | -17% | 0% | 9% | 1% | Q4 |  |  |  | 
CCN[C@H]1C[C@H](C)S(=O)(=O)c2sc(S(N)(=O)=O)cc21 [Dorzolamide] | -40% | 1% | 15% | 1% | Q4 |  |  |  | 

Compound | inhibition at 10 µM [1] | LPS % cell toxicity (primary rat microglia [2]; rat) | inhibition at 10 µM [3] | Fibrin % cell toxicity (primary rat microglia [4]; rat) | Quadrant (FIG. 5b) [5] | inhibition at 10 µM [1, 6] | inhibition at 10 µM [3, 7] | Quadrant (FIG. 5b) [5, 8] | also measured
CNCC[C@H](Oc1cccc2ccccc12)c1cccs1 [Duloxetine] | 22% | 0% | 24% | 0% | Q4 |  |  |  | 
C[C@]12C=CC(=O)N[C@@H]1CC[C@@H]1[C@@H]2CC[C@]2(C)[C@@H](C(=O)Nc3cc(C(F)(F)F)ccc3C(F)(F)F)CC[C@@H]12 [Dutasteride] | 7% | 0% | 22% | 1% | Q4 |  |  |  | 
Clc1ccc(COC(Cn2ccnc2)c2ccc(Cl)cc2Cl)cc1 (stereo not shown) [Econazole] | 0% | 0% | 18% | 0% | Q4 |  |  |  | 
O=c1oc2c(O)c(O)cc3c(=O)oc4c(O)c(O)cc1c4c23 [Ellagic Acid] |  | 0% |  | 1% |  | -5% | 24% | Q4 | 
Nc1nc(=O)n([C@@H]2CS[C@H](CO)O2)cc1F [Emtricitabine] | -73% | 1% | 11% | 1% | Q4 |  |  |  | 
CCOC(=O)[C@H](CCc1ccccc1)N[C@@H](C)C(=O)N1CCC[C@H]1C(=O)O [Enalapril] |  | 1% |  | 1% |  | 24% | 6% | Q4 | 
NC1=NCC2c3ccccc3Cc3ccccc3N12 (stereo not shown) [Epinastine] | -38% | 0% | -15% | 1% | Q4 |  |  |  | 
COc1cccc2c1C(=O)c1c(O)c3c(c(O)c1C2=O)C[C@@](O)(C(=O)CO)C[C@@H]3O[C@H]1C[C@H](N)[C@@H](O)[C@H](C)O1 [Epirubicin, Epirubicin Hydrochloride] |  |  |  |  |  |  |  |  | Fibrin % inhibition [1, 10]: 113%; LPS % cell toxicity (primary rat microglia [2]): 58%; LPS % inhibition ([3]; primary microglia HTS, LPS stimulation, increased cell size (>800 μm^2) as marker of activation): 123%; Fibrin % cell toxicity (primary rat microglia [4]): 79%; Quadrant (FIG. 5b) [5, 11]: Q2
C=C1CC[C@H](O)C/C1=C/C=C1\CCC[C@]2(C)[C@@H]([C@H](C)/C=C/[C@H](C)C(C)C)CC[C@@H]12 [Ergocalciferol] |  | 0% |  | 1% |  | -6% | 7% | Q4 | 
C#Cc1cccc(Nc2ncnc3cc(OCCOC)c(OCCOC)cc23)c1 [Erlotinib] |  | 0% |  | 1% |  | -52% | -8% | Q4 | 
CC[C@@H](CO)NCCN[C@@H](CC)CO [Ethambutol] |  | 1% |  | 1% |  | 12% | 14% | Q4 | 
CCc1cccc2c3c([nH]c12)C(CC)(CC(=O)O)OCC3 (stereo not shown) [Etodolac] |  | 1% |  | 0% |  | -87% | 14% | Q4 | 
CC12CCC(CC1)C(C)(C)O2 [Eucalyptol] |  | 0% |  | 0% |  | -15% | 9% | Q4 | 
CC(Cc1ccc(O)cc1)NCC(O)c1cc(O)cc(O)c1 (stereo not shown) [Fenoterol] |  | 0% |  | 0% |  |  |  |  | inhibition at 10 µM [1, 12]: 40%; inhibition at 10 µM [3, 13]: 26%; Quadrant (FIG. 5b) [5, 11]: Q4
OC(Cn1cncn1)(Cn1cncn1)c1ccc(F)cc1F [Fluconazole] | 3% | 0% |  | 0% | Q4 |  |  |  | inhibition at 10 µM ([3]; 48 h): 19%
CCOC(=O)c1ncn2c1CN(C)C(=O)c1cc(F)ccc1-2 [Flumazenil] |  | 1% |  | 1% |  |  |  |  | inhibition at 10 µM [1, 12]: 5%; inhibition at 10 µM [3, 13]: 14%; Quadrant (FIG. 5b) [5, 11]: Q4
